Test results from patent US12152048B2, “Nitroxoline prodrug and use thereof” (Jiangsu Yahong Meditech Co., Ltd., priority 2018, dated 2024).
Converted amounts (≈) assume the structure as drawn.

Experiments:
[1] = Stability in human plasma
Excerpt: (§1) Experimental instruments: thermostatic shaker (SHA-B, Guohua Electric Appliance Co., Ltd.); centrifuge (5810R, Eppendorf); mass spectrometry (AP4000, Applied Biosystems, USA); liquid chromatography (LC-30AD, Shimadzu); sample injector (CTC Analytics AG System, CTC).
(§2) Test animals: plasma of human (batch number: BRH1343165), rat (batch number: RAT336728), mouse (batch number: MSE280000), dog (batch number: BGL99137) and monkey (batch number: PH-Monkey-20180821) are purchased from Shanghai Sixin Biological Technology Co., Ltd.
(§3) Experimental process: the compound of the present invention was dissolved in an organic solvent to obtain a 1 mM working solution. 3 μL of the working solution were added to 597 μL of pre-incubated human or rat plasma and mixed well. 50 μL of the solution were immediately taken out as the 0 minute sample. The remaining sample was incubated at 37° C., and 50 μL of sample were taken out at 15, 30, 60 and 120 minutes respectively. All the samples taken out were immediately processed to precipitate protein, and centrifuged to obtain a supermate for the determination of the compound concentration by LC/MS/MS.

[2] = Stability in human liver microsome; conditions: 2 μM, 37° C., 30 minutes
[3] = Stability in dog liver microsome; conditions: 2 μM, 37° C., 30 minutes
Stability in dog plasma = type: in vitro ADME
[4] = Stability in monkey plasma; type: in vitro ADME
Excerpt: as §1, §2, §3

[5] = Pharmacokinetics assay in dog (nitroxoline concentration in plasma after single intravenous or oral administration); type: in vivo, beagle dog; conditions: for absorption in beagle dogs compared with nitroxoline: conclusion in words; for AUC0-inf: nitroxoline in beagle dog plasma
Excerpt: Nitroxoline is mainly metabolized by the phase II metabolism in liver with a fast metabolism rate, so it has a short half-life in the body. The present invention modified its structure and 13 compounds of formula (I) were obtained through chemical synthesis. The change of nitroxoline concentration in dog plasma after a single intravenous or oral administration of nitroxoline and the compound of formula (I) was studied to evaluate the pharmacokinetic behavior of nitroxoline and the compound of formula (I) in dog body.
Male beagle dog (Beijing Marshall Biotechnology Co., Ltd., Certificate No.: SCXK (BJ) 2016-0001, Qualified number: 11400600001728), 3 dogs per group, weight 10 to 13 kg, 20 to 22 months old. The dogs were fasted overnight before the administration with free access to water, and fed 4 hours after the administration. The test compound was added to an EP tube, and then added with DMSO, solutol and sterilized water for injection (the volume ratio of the three was 1:2:17, v:v:v). The EP tube was subjected to ultrasound for 20 minutes to make the test compound dissolve well (compound concentration: 0.005 mmol/mL). The dose for intravenous administration was 0.01 mmol/kg, and the dose for oral administration was 0.1 mmol/kg. 0.3 ml of whole blood was collected from jugular vein before the administration (0 hour) and 0.0833, 0.25, 0.5, 1, 2, 4, 6, 8, 10 and 12 hours after the administration (sampling points can be adjusted according to the specific situation) respectively. The blood sample was placed in a centrifuge tube containing EDTA-K2 anticoagulant (Aldrich), and the centrifuge tube was left to stand in ice. The blood sample was centrifuged for 10 minutes at 1530 g within 0.5 hour to obtain all clean plasma. The plasma was placed in another clean centrifuge tube, and stored in a refrigerator at −20° C. for later use.
Solution for standard curve was formulated. 1000 μL of internal standard working solution (containing a solution of verapamil (5 ng/mL, Aldrich), glibenclamide (50 ng/mL, Aldrich) and diclofenac (50 ng/mL, Aldrich) in acetonitrile) was added to 10 μL of the solution for standard curve and sample, and the mixture was shaked by vortex for 5 minutes. The mixture was centrifuged for 10 minutes at 4° C., 3700 rpm. 60 μL of the supernatant were placed in an injection tube, and mixed with 120 μL of water. 10 μL of the solution were injected into the liquid chromatography-mass spectrometry system for determination. The pharmacokinetic parameters were calculated by the WinNonlin V 6.2 non-compartmental model.

[6] = Stability in rat liver microsome; conditions: 2 μM, 37° C., 30 minutes
[7] = Determination of water solubility in phosphate buffer; type: physicochemical; conditions: for solubility at 24 h: thermodynamic from solid
Summary of the method: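 2 mg solid compound shaken in 500 μL phosphate buffer (pH 1.2, 4.5, 6.8 or 7.4) in a sealed flask, room temperature, 24 h. Suspension vacuum-filtered; dissolved concentration in filtrate quantified by LC/MS/MS.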

[8] = Stability in mouse liver microsome; type: in vitro ADME; conditions: 2 μM, 37° C., 30 minutes
[9] = Stability in mouse plasma; type: in vitro ADME
Excerpt: as §1, §2, §3

[10] = oral administration 0.1 mmol/kg
[11] = aqueous buffer, phosphate buffer pH 4.5, room temperature
[12] = aqueous buffer, phosphate buffer pH 6.8, room temperature
[13] = aqueous buffer, phosphate buffer pH 7.4, room temperature
[14] = simulated gastric fluid, phosphate buffer pH 1.2, room temperature
[15] = intravenous administration 0.01 mmol/kg

CCC(CC)C(=O)OCOc1ccc([N+](=O)[O-])c2cccnc12 [Compound 5, (5-nitroquinolin-8-yloxy)methyl 2-ethylbutanoate]
Percentage of the compound remaining in plasma ([1]; 0 minute): 100.0%
Percentage of the compound remaining in plasma ([1]; 37° C., 15 minutes): 68.5%
Percentage of the compound remaining in plasma ([1]; 37° C., 30 minutes): 39.5%
Percentage of the compound remaining in plasma ([1]; 37° C., 60 minutes): 11.9%
Percentage of the compound remaining in plasma ([1]; 37° C., 120 minutes): 1.6%
Percentage of the compound remaining in human liver microsome ([2]; with coenzyme): 0.15%
Percentage of the compound remaining in human liver microsome ([2]; without coenzyme): 0.88%
Percentage of the compound remaining in dog liver microsome ([3]; with coenzyme): 0.19%
Percentage of the compound remaining in dog liver microsome ([3]; without coenzyme): 4.06%
Percentage of the compound remaining in plasma (Stability in dog plasma; 0 minute): 100.0%
Percentage of the compound remaining in plasma (Stability in dog plasma; 37° C., 15 minutes): 75.0%
Percentage of the compound remaining in plasma (Stability in dog plasma; 37° C., 30 minutes): 50.6%
Percentage of the compound remaining in plasma (Stability in dog plasma; 37° C., 60 minutes): 27.1%
Percentage of the compound remaining in plasma (Stability in dog plasma; 37° C., 120 minutes): 12.0%
Percentage of the compound remaining in plasma ([4]; 0 minute): 100.0%
Percentage of the compound remaining in plasma ([4]; 37° C., 15 minutes): 0.0%
Percentage of the compound remaining in plasma ([4]; 37° C., 30 minutes): 0.0%
Percentage of the compound remaining in plasma ([4]; 37° C., 60 minutes): 0.0%
Percentage of the compound remaining in plasma ([4]; 37° C., 120 minutes): 0.0%
absorption in beagle dogs compared with nitroxoline [5]: well absorbed
AUC0-inf [5, 10]: 1760 ng*hmL^−1
Percentage of the compound remaining in rat liver microsome ([6]; with coenzyme): 0.16%
Percentage of the compound remaining in rat liver microsome ([6]; without coenzyme): 1.10%
solubility at 24 h [7, 11]: 13.1 µg/mL (≈ 41.1 µM)
solubility at 24 h [7, 12]: 11.1 µg/mL (≈ 34.9 µM)
solubility at 24 h [7, 13]: 13 µg/mL (≈ 40.9 µM)
solubility at 24 h [7, 14]: 204 µg/mL (≈ 640 µM)
Percentage of the compound remaining in mouse liver microsome ([8]; with coenzyme): 0.44%
Percentage of the compound remaining in mouse liver microsome ([8]; without coenzyme): 0.34%
Percentage of the compound remaining in plasma (Stability in rat plasma; 0 minute): 100.0%
Percentage of the compound remaining in plasma (Stability in rat plasma; 37° C., 15 minutes): 2.2%
Percentage of the compound remaining in plasma (Stability in rat plasma; 37° C., 30 minutes): 0.0%
Percentage of the compound remaining in plasma (Stability in rat plasma; 37° C., 60 minutes): 0.0%
Percentage of the compound remaining in plasma (Stability in rat plasma; 37° C., 120 minutes): 0.0%

CC(C)C(=O)N1CCC[C@H]1C(=O)OCOc1ccc([N+](=O)[O-])c2cccnc12 [Compound 20, (S)-(5-nitroquinolin-8-yloxy)methyl 1-isopropionylpyrrolidine-2-carboxylate]
Percentage of the compound remaining in human liver microsome ([2]; with coenzyme): 26.92%
Percentage of the compound remaining in human liver microsome ([2]; without coenzyme): 59.42%
Percentage of the compound remaining in dog liver microsome ([3]; with coenzyme): 33.13%
Percentage of the compound remaining in dog liver microsome ([3]; without coenzyme): 53.50%
absorption in beagle dogs compared with nitroxoline [5]: well absorbed
AUC0-inf [5, 15]: 1290 ng*hmL^−1
AUC0-inf [5, 10]: 8750 ng*hmL^−1
Percentage of the compound remaining in rat liver microsome ([6]; with coenzyme): 3.64%
Percentage of the compound remaining in rat liver microsome ([6]; without coenzyme): 46.82%
solubility at 24 h [7, 11]: 1050 µg/mL (≈ 2700 µM)
solubility at 24 h [7, 12]: 962 µg/mL (≈ 2480 µM)
solubility at 24 h [7, 13]: 978 µg/mL (≈ 2530 µM)
water solubility compared with nitroxoline ([7]; conclusion in words): increased by several times
solubility at 24 h [7, 14]: 1010 µg/mL (≈ 2610 µM)
Percentage of the compound remaining in mouse liver microsome ([8]; with coenzyme): 0.09%
Percentage of the compound remaining in mouse liver microsome ([8]; without coenzyme): 49.07%

CCC(CC)C(=O)OC(C)Oc1ccc([N+](=O)[O-])c2cccnc12 (centres unmarked) [Compound 51, 1-(5-nitroquinolin-8-yloxy)ethyl 2-ethylbutanoate]
Percentage of the compound remaining in plasma ([1]; 0 minute): 100.0%
Percentage of the compound remaining in plasma ([1]; 37° C., 15 minutes): 97.2%
Percentage of the compound remaining in plasma ([1]; 37° C., 30 minutes): 98.0%
Percentage of the compound remaining in plasma ([1]; 37° C., 60 minutes): 94.1%
Percentage of the compound remaining in plasma ([1]; 37° C., 120 minutes): 84.6%
Percentage of the compound remaining in human liver microsome ([2]; with coenzyme): 0.06%
Percentage of the compound remaining in human liver microsome ([2]; without coenzyme): 0.25%
Percentage of the compound remaining in dog liver microsome ([3]; with coenzyme): 0.07%
Percentage of the compound remaining in dog liver microsome ([3]; without coenzyme): 0.28%
Percentage of the compound remaining in plasma (Stability in dog plasma; 0 minute): 100.0%
Percentage of the compound remaining in plasma (Stability in dog plasma; 37° C., 15 minutes): 103.7%
Percentage of the compound remaining in plasma (Stability in dog plasma; 37° C., 30 minutes): 93.7%
Percentage of the compound remaining in plasma (Stability in dog plasma; 37° C., 60 minutes): 89.1%
Percentage of the compound remaining in plasma (Stability in dog plasma; 37° C., 120 minutes): 93.3%
Percentage of the compound remaining in plasma ([4]; 0 minute): 100.0%
Percentage of the compound remaining in plasma ([4]; 37° C., 15 minutes): 96.4%
Percentage of the compound remaining in plasma ([4]; 37° C., 30 minutes): 87.0%
Percentage of the compound remaining in plasma ([4]; 37° C., 60 minutes): 78.1%
Percentage of the compound remaining in plasma ([4]; 37° C., 120 minutes): 69.0%
absorption in beagle dogs compared with nitroxoline [5]: well absorbed
AUC0-inf [5, 15]: 1153 ng*hmL^−1
AUC0-inf [5, 10]: 2474 ng*hmL^−1
Percentage of the compound remaining in rat liver microsome ([6]; with coenzyme): 0.08%
Percentage of the compound remaining in rat liver microsome ([6]; without coenzyme): 2.92%
solubility at 24 h [7, 11]: 7.07 µg/mL (≈ 21.3 µM)
solubility at 24 h [7, 12]: 5.69 µg/mL (≈ 17.1 µM)
solubility at 24 h [7, 13]: 6.62 µg/mL (≈ 19.9 µM)
solubility at 24 h [7, 14]: 91.4 µg/mL (≈ 275 µM)
Percentage of the compound remaining in mouse liver microsome ([8]; with coenzyme): 0.02%
Percentage of the compound remaining in mouse liver microsome ([8]; without coenzyme): 0.09%
Percentage of the compound remaining in plasma (Stability in rat plasma; 0 minute): 100.0%
Percentage of the compound remaining in plasma (Stability in rat plasma; 37° C., 15 minutes): 70.2%
Percentage of the compound remaining in plasma (Stability in rat plasma; 37° C., 30 minutes): 67.8%
Percentage of the compound remaining in plasma (Stability in rat plasma; 37° C., 60 minutes): 48.0%
Percentage of the compound remaining in plasma (Stability in rat plasma; 37° C., 120 minutes): 35.3%

O=[N+]([O-])c1ccc(O)c2ncccc12 [Nitroxoline]
Percentage of the compound remaining in plasma ([1]; 0 minute): 100.0%
Percentage of the compound remaining in plasma ([1]; 37° C., 15 minutes): 99.3%
Percentage of the compound remaining in plasma ([1]; 37° C., 30 minutes): 98.3%
Percentage of the compound remaining in plasma ([1]; 37° C., 60 minutes): 100.6%
Percentage of the compound remaining in plasma ([1]; 37° C., 120 minutes): 91.6%
Percentage of the compound remaining in plasma ([9]; 0 minute): 100.0%
Percentage of the compound remaining in plasma ([9]; 37° C., 15 minutes): 95.8%
Percentage of the compound remaining in plasma ([9]; 37° C., 30 minutes): 97.4%
Percentage of the compound remaining in plasma ([9]; 37° C., 60 minutes): 97.4%
Percentage of the compound remaining in plasma ([9]; 37° C., 120 minutes): 93.0%
Percentage of the compound remaining in plasma (Stability in dog plasma; 0 minute): 100.0%
Percentage of the compound remaining in plasma (Stability in dog plasma; 37° C., 15 minutes): 100.8%
Percentage of the compound remaining in plasma (Stability in dog plasma; 37° C., 30 minutes): 101.1%
Percentage of the compound remaining in plasma (Stability in dog plasma; 37° C., 60 minutes): 95.3%
Percentage of the compound remaining in plasma (Stability in dog plasma; 37° C., 120 minutes): 98.4%
Percentage of the compound remaining in plasma ([4]; 0 minute): 100.0%
Percentage of the compound remaining in plasma ([4]; 37° C., 15 minutes): 101.2%
Percentage of the compound remaining in plasma ([4]; 37° C., 30 minutes): 104.0%
Percentage of the compound remaining in plasma ([4]; 37° C., 60 minutes): 101.8%
Percentage of the compound remaining in plasma ([4]; 37° C., 120 minutes): 100.4%
AUC0-inf [5, 15]: 3300 ng*hmL^−1
AUC0-inf [5, 10]: 4780 ng*hmL^−1
solubility at 24 h [7, 13]: 352 µg/mL (≈ 1850 µM)
Percentage of the compound remaining in plasma (Stability in rat plasma; 0 minute): 100.0%
Percentage of the compound remaining in plasma (Stability in rat plasma; 37° C., 15 minutes): 93.9%
Percentage of the compound remaining in plasma (Stability in rat plasma; 37° C., 30 minutes): 94.1%
Percentage of the compound remaining in plasma (Stability in rat plasma; 37° C., 60 minutes): 95.3%
Percentage of the compound remaining in plasma (Stability in rat plasma; 37° C., 120 minutes): 88.4%
